# “And” between values parts separate entries of the source, which are not always exact repeats. Identical values can stand only once.
# Assays:
# Format in all cases: in vivo, human
# [1] = tested on: post-operative adult patients; experiment: Example 2: patient self-assessment of pain, VAS with movement; conditions: 800 mg
# [2] = tested on: post-operative adult patients; experiment: Example 2: morphine use in the 24 hours following abdominal hysterectomy surgery; conditions: 800 mg; for Morphine Requirement, Mean (SD) / Morphine Requirement, Median: 24 hours following surgery; for Transformed Morphine Requirement, LSMeans (SE) / Transformed Morphine Requirement, Max / Transformed Morphine Requirement, Mean (SD) / Transformed Morphine Requirement, Median / Transformed Morphine Requirement, Min: Box Cox transformation
# Procedure: To be eligible for this study, the patients met the following inclusion criteria: 1) scheduled for elective abdominal hysterectomy surgery with anticipated need for post-operative I.V. morphine analgesia with anticipated use of greater than 24 hours; 2) adequate IV access; and 3) anticipated hospital stay greater than 24 hours. The study exclusion criteria required patients only between the ages of 18 and 70 years old. […] Efficacy was measured by comparing the reduction in morphine use over the 24 hours immediately post surgery. Efficacy was measured by reduction in the requirement for the narcotic analgesic, morphine, in the 24 hours post surgery.
# The Clinical Trial Material (“CTM”) was mixed in 250 mL normal saline. Saline was chosen as the control group (placebo) for this study, to ensure blinding and allow for analysis of treatment effect.
# By protocol, patients were to be dosed every six hours for five doses, then as necessary (PRN) for pain every six hours for up to five days post surgery. However, after 24 hours through day 5, CTM had to be discontinued if there was a requirement for narcotic pain medication other than morphine or non-narcotic medications including the use of another NSAID. Further, after 24 hours through day 5, CTM may have been discontinued if there was resolution of pain, no IV access or discharge from the hospital.
# The study participants were randomized based on criteria for an efficacy evaluable population (EEP) versus an intent to treat population (ITT). […] The intent-to-treat population (ITT) consists of AT patients who received at least one post-surgical dose of CTM or at least one dose of morphine for break-through pain. The efficacy evaluable population (EEP) consists of all ITT patients who received each of the first five doses of CTM within 60 minutes of the scheduled time and who have the 6-hour and 28-hour VAS with movement assessments.
# Eligible patients were randomized to one of the two treatment groups. All patients were able (but were not required) to receive morphine until approximately 45 minutes before the end of the surgical procedure. After that time, only fentanyl was allowed until the end of the operation. […] Upon discharge from the operating room, patients had access to morphine (approximately 1-2 mg q 5 minutes) upon patient request or delivered by patient-controlled analgesia (PCA). […] Upon discharge from the operating room, patients had access to 1 mg morphine every 5 minutes upon request or by patient-controlled analgesia (PCA). […] Patients given non-morphine analgesics were classified as treatment failures. Treatment failures were not replaced.
# Patients were evaluated and compared for morphine requirements between the active doses and placebo using analysis of variance and covariance procedures at an overall alpha level of 0.05. Secondary efficacy parameters were also evaluated and compared among the treatment groups using appropriate statistical methods described in the statistical analysis section of the protocol. Safety information was compared between the treatment groups using Chi-Square or Cochran-Mantel-Haenszel test. Demographic, background and baseline information among the treatment groups was also described.
# The primary endpoint for the study was reduction in the requirement for morphine use in the 24 hours following surgery as measured by total morphine usage compared to placebo. Analysis of variance and covariance procedures were used to compare the reduction in the requirement for morphine use in the 24 hours following surgery among the treatment groups. Dunnet's test was used as a multiple comparison test to compare active dose groups with the placebo group at an overall alpha level of 0.05. In the primary model, center was introduced as a covariate.
# [3] = tested on: patients undergoing orthopedic surgical procedures; experiment: Example 3: morphine use post-surgery through study hour 28; conditions: for Morphine Requirement, LS Means Difference (95% CI): 800 mg vs placebo; for Morphine Requirement, LS Means Difference (95% CI) / Morphine Requirement, LS Means (SE) / Morphine Requirement, Mean (SD) / Morphine Requirement, Median: Post-Op-28 hours; for decrease in the mean morphine used in the postoperative period / Morphine Requirement, LS Means (SE) / Morphine Requirement, Mean (SD) / Morphine Requirement, Median: 800 mg
# [4] = tested on: patients undergoing orthopedic surgical procedures; experiment: Example 3: adverse events
# Procedure: Patients were evaluated and compared for morphine requirements between the active doses and placebo using analysis of variance and covariance procedures at an overall alpha level of 0.05. Secondary efficacy parameters were also evaluated and compared among the treatment groups using appropriate statistical methods described in the statistical analysis section of the protocol. For the adverse events, instead of using an unadjusted Chi-square test and a Cochran-Mantel-Haenszel test adjusted for center to compare treatment groups with respect to the numbers of patients reporting AEs, a Fisher's exact test was used to compare treatment groups for any AE that was reported by five or more patients.
# [5] = tested on: post-operative adult patients; experiment: Example 2: time to GI motility, ambulation, liquid intake, solid diet, length of hospital stay; conditions: 800 mg; for Time to GI motility: value + SD
# Procedure: To evaluate the secondary objective of determining whether the addition of IVIb reduces the incidence of opioid related side-effects, the following endpoints were measured: (a) GI motility as assessed by return of bowel sounds, flatulence, or bowel movement (b) Combined Safety Assessment (occurrence of any of the following during the 48 hour treatment period received a rating of one: diffuse pruritus, overt respiratory depression requiring treatment; the combined total and individual incidences were evaluated), need for post-operative urinary indwelling catheter (after initial removal of surgical catheter), incidence of post-operative vomiting or need for anti-emetic medication, Richmond Agitation Sedation Scale (<−3), (c) Resumption of ambulation, (d) Resumption of liquid intake and solid diet, and (e) Length of hospital stay.
structure (smiles),measurement,setting,value
"CC(C)Cc1ccc(C(C)C(=O)O)cc1 (stereo not shown) [Ibuprofen, 2-(4-isobutylphenyl) propionic acid]",VAS Score measured with Movement (median),"[1]; EEP, 1-Hour",9.0
same,"VAS Score measured with Movement, % Reduction vs Placebo","[1]; EEP, 1-Hour",−12.5%
same,VAS Score measured with Movement (median),"[1]; EEP, 3-Hour",7.0
same,"VAS Score measured with Movement, % Reduction vs Placebo","[1]; EEP, 3-Hour",0.0%
same,VAS Score measured with Movement (median),"[1]; EEP, 6-Hour",6.0
same,"VAS Score measured with Movement, % Reduction vs Placebo","[1]; EEP, 6-Hour",0.0%
same,VAS Score measured with Movement (median),"[1]; EEP, 9-Hour",5.0
same,"VAS Score measured with Movement, % Reduction vs Placebo","[1]; EEP, 9-Hour",0.0%
same,VAS Score measured with Movement (median),"[1]; EEP, 12-Hour",4.0
same,"VAS Score measured with Movement, % Reduction vs Placebo","[1]; EEP, 12-Hour",20.0%
same,VAS Score measured with Movement (median),"[1]; EEP, 15-Hour",3.0
same,VAS Score measured with Movement (median),"[1]; EEP, 18-Hour",3.0
same,"VAS Score measured with Movement, % Reduction vs Placebo","[1]; EEP, 18-Hour",25.0%
same,VAS Score measured with Movement (median),"[1]; EEP, 21-Hour",3.0
same,"VAS Score measured with Movement, % Reduction vs Placebo","[1]; EEP, 21-Hour",25.0%
same,VAS Score measured with Movement (median),"[1]; EEP, 24-Hour",3.0
same,"VAS Score measured with Movement, % Reduction vs Placebo","[1]; EEP, 24-Hour",40.0%
same,VAS Score measured with Movement (median),"[1]; ITT, 1-Hour",9.0
same,"VAS Score measured with Movement, % Reduction vs Placebo","[1]; ITT, 1-Hour",−12.5%
same,VAS Score measured with Movement (median),"[1]; ITT, 3-Hour",7.0
same,"VAS Score measured with Movement, % Reduction vs Placebo","[1]; ITT, 3-Hour",0.0%
same,VAS Score measured with Movement (median),"[1]; ITT, 6-Hour",6.0
same,"VAS Score measured with Movement, % Reduction vs Placebo","[1]; ITT, 6-Hour",0.0%
same,VAS Score measured with Movement (median),"[1]; ITT, 9-Hour",5.0
same,"VAS Score measured with Movement, % Reduction vs Placebo","[1]; ITT, 9-Hour",3.8%
same,VAS Score measured with Movement (median),"[1]; ITT, 12-Hour",4.3
same,"VAS Score measured with Movement, % Reduction vs Placebo","[1]; ITT, 12-Hour",10.4%
same,VAS Score measured with Movement (median),"[1]; ITT, 15-Hour",3.4
same,"VAS Score measured with Movement, % Reduction vs Placebo","[1]; ITT, 15-Hour",22.7%
same,VAS Score measured with Movement (median),"[1]; ITT, 18-Hour",3.0
same,VAS Score measured with Movement (median),"[1]; ITT, 21-Hour",3.0
same,"VAS Score measured with Movement, % Reduction vs Placebo","[1]; ITT, 21-Hour",34.8%
same,VAS Score measured with Movement (median),"[1]; ITT, 24-Hour",3.6
same,"VAS Score measured with Movement, % Reduction vs Placebo","[1]; ITT, 24-Hour",20.0%
same,"Morphine Requirement, Max",[2]; Efficacy Evaluable,143.3 mg
same,"Morphine Requirement, Min",[2]; Efficacy Evaluable,4.0 mg
same,"Morphine Requirement, Mean (SD)",[2]; Efficacy Evaluable,45.5 mg and 45.5 (24.6) mg
same,"Morphine Requirement, Median",[2]; Efficacy Evaluable,42.0 mg
same,"Transformed Morphine Requirement, LSMeans (SE)",[2]; Efficacy Evaluable,10.8 (0.3) mg
same,"Transformed Morphine Requirement, Max",[2]; Efficacy Evaluable,21.2 mg
same,"Transformed Morphine Requirement, Mean (SD)",[2]; Efficacy Evaluable,10.7 (3.5) mg
same,"Transformed Morphine Requirement, Median",[2]; Efficacy Evaluable,10.7 mg
same,"Transformed Morphine Requirement, Min",[2]; Efficacy Evaluable,2.0 mg
same,"Morphine Requirement, Max",[2]; Intent-to-Treat,143.3 mg
same,"Morphine Requirement, Min",[2]; Intent-to-Treat,4.0 mg
same,"Morphine Requirement, Mean (SD)",[2]; Intent-to-Treat,47.3 mg and 47.3 (25.6) mg
same,"Morphine Requirement, Median",[2]; Intent-to-Treat,43.5 mg
same,"Transformed Morphine Requirement, LSMeans (SE)",[2]; Intent-to-Treat,12.1 (0.4) mg
same,"Transformed Morphine Requirement, Max",[2]; Intent-to-Treat,23.5 mg
same,"Transformed Morphine Requirement, Mean (SD)",[2]; Intent-to-Treat,11.8 (4.0) mg
same,"Transformed Morphine Requirement, Median",[2]; Intent-to-Treat,11.8 mg
same,"Transformed Morphine Requirement, Min",[2]; Intent-to-Treat,2.0 mg
same,"Morphine Requirement, LS Means Difference (95% CI)",[3]; AT,"−16.6 (−24.7, −8.4)"
same,"Morphine Requirement, LS Means Difference (95% CI)",[3]; EEP,"−18.1 (−27.2, −9.0)"
same,"Morphine Requirement, LS Means Difference (95% CI)",[3]; ITT,"−16.4 (−24.6, −8.1)"
same,decrease in the mean morphine used in the postoperative period,[3]; AT,30.9%
same,"Morphine Requirement, LS Means (SE)",[3]; AT,44.3 (5.7)
same,"Morphine Requirement, Mean (SD)",[3]; AT,41.1 (27.3)
same,"Morphine Requirement, Median",[3]; AT,38.0
same,"Morphine Requirement, LS Means (SE)",[3]; EEP,43.7 (5.9)
same,"Morphine Requirement, Mean (SD)",[3]; EEP,43.7 (26.9)
same,"Morphine Requirement, Median",[3]; EEP,40.5
same,decrease in the mean morphine used in the postoperative period,[3]; EPP,33.3%
same,decrease in the mean morphine used in the postoperative period,[3]; ITT,30.3%
same,"Morphine Requirement, LS Means (SE)",[3]; ITT,45.2 (5.8)
same,"Morphine Requirement, Mean (SD)",[3]; ITT,41.9 (26.9)
same,"Morphine Requirement, Median",[3]; ITT,38.0
same,deaths,[4]; 800 mg,no deaths reported
same,incidence of serious adverse events vs placebo,[4]; 800 mg,no statistically significant difference
same,patients that experienced dyspepsia (treatment-emergent adverse events),[4]; 800 mg vs placebo,significantly more patients in the placebo group
same,patients that experienced vomiting (treatment-emergent adverse events),[4]; 800 mg vs placebo,significantly more patients in the intravenous ibuprofen group
same,Length of hospital stay,[5]; EEP,62.8 ± 21.58
same,Time to ambulation,[5]; EEP,23.5 ± 0.53 h
same,Time to liquid intake,[5]; EEP,12.4 ± 0.89
same,Time to solid diet,[5]; EEP,39.1 ± 1.42 h
same,Time to GI motility,[5]; EEP,9.2+0.90 hours
same,Length of hospital stay,[5]; ITT,62.4 ± 21.01
same,Time to ambulation,[5]; ITT,23.4 ± 0.50 h
same,Time to liquid intake,[5]; ITT,12.1 ± 0.83
same,Time to solid diet,[5]; ITT,41.0 ± 2.46 h
same,Time to ambulation,"[5]; ITT, listed as IV Ibuprofen",significantly improved time to ambulation
same,Time to GI motility,[5]; ITT,9.4+0.87 hours
